Laboratory results taken from patent publication US11229618B2 (Amarin Pharmaceuticals Ireland Limited, priority 2012, dated 2022).

Key:
[1] = AAMI 6-week study: safety and tolerability; type: in vivo, human
Procedure: All randomized subjects that received at least 1 dose of study medication were included in the Safety Population.
Safety evaluations were based on the safety population. Safety and tolerability were assessed in terms of AEs, vital signs, 12-lead ECG, clinical laboratory data, medical history, and study drug compliance. Safety and tolerability data were presented by treatment group.

fasting TG levels = assay: MARINE: fasting TG lowering and LDL-C; type: in vivo, human; settings: for median percent reductions in TG from baseline, 4 g/day compared with 2 g/day: 12 weeks
Procedure: A multi-center, placebo-controlled randomized, double-blind, 12-week study with an open-label extension is performed to evaluate the efficacy and safety of AMR101 in patients with fasting triglyceride levels≥500 mg/dL. The primary objective of the study is to determine the efficacy of AMR101 2 g daily and 4 g daily, compared to placebo, in lowering fasting TG levels in patients with fasting TG levels≥500 mg/dL and ≤1500 mg/dL (≥5.65 mmol/L and ≤16.94 mmol/L).
The primary efficacy variable for the double-blind treatment period is percent change in TG from baseline to Week 12 endpoint. The secondary efficacy variables for the double-blind treatment period include the following: • Percent changes in total cholesterol (TC), high-density lipoprotein cholesterol (HDL-C), calculated low-density lipoprotein cholesterol (LDL-C), calculated non-high-density lipoprotein cholesterol (non-HDL-C), and very low-density lipoprotein cholesterol (VLDL-C) from baseline to Week 12 endpoint; • Percent change in very low-density lipoprotein TG from baseline to Week 12; • Percent changes in apolipoprotein A-I (apo A-I), apolipoprotein B (apo B), and apo A-I/apo B ratio from baseline to Week 12; • Percent changes in lipoprotein(a) from baseline to Week 12 (selected sites only); • Percent changes in LDL particle number and size, measured by nuclear magnetic resonance, from baseline to Week 12 (selected sites only); • Percent change in remnant-like particle cholesterol from baseline to Week 12 (selected sites only); • Percent change in oxidized LDL from baseline to Week 12 (selected sites only); • Changes in FPG and HbA1c from baseline to Week 12; • Change in insulin resistance, as assessed by the homeostasis model index insulin resistance, from baseline to Week 12; • Percent change in lipoprotein associated phospholipase A2 from baseline to Week 12 (selected sites only); • Change in intracellular adhesion molecule-1 from baseline to Week 12 (selected sites only); • Change in interleukin-6 from baseline to Week 12 (selected sites only); • Change in plasminogen activator inhibitor-1 from baseline to Week 12 (selected sites only); • Change in hsCRP from baseline to Week 12 (selected sites only); • Change in serum phospholipid EPA content from baseline to Week 12; • Change in red blood cell membrane EPA content from baseline to Week 12; and • Change in serum phospholipid and red blood cell membrane content in the following fatty acids from baseline to Week 12: docosapentaenoic acid, docosahexaenoic acid, arachidonic acid, palmitic acid, stearic acid, and oleic acid.
MARINE and ANCHOR were 12-week, phase 3, double-blind studies that randomized patients to IPE 4 g/day, 2 g/day, or placebo. […]

CC/C=C\C/C=C\C/C=C\C/C=C\C/C=C\CCCC(=O)OCC [IPE, all-cis eicosa-5,8,11,14,17-pentaenoic acid ethyl ester]
TEAEs Definitely Related to the study drug [1]: No TEAEs were Definitely Related
deaths during the study [1]: no deaths
nausea Probably Related to the study drug ([1]; 1 g): One subject
subjects with nausea Possibly Related to the study drug ([1]; 1 g cohort): two
subjects with nausea Possibly Related to the study drug ([1]; 2 g cohort): one
serious adverse events ([1]; 2 g treatment group): One SAE
subjects discontinued due to TEAEs ([1]; 2 g treatment group): 2 subjects
diarrhea Probably Related to the study drug ([1]; 4 g): Another subject
subjects with nausea Possibly Related to the study drug ([1]; 4 g cohort): two
severity and relatedness of most TEAEs ([1]; all groups): mild in severity and unrelated to study drug
treatment emergent AEs (TEAEs) reported ([1]; ethyl-EPA treatment groups (placebo groups 34 events)): 105 events
effect on LDL-C (fasting TG levels): without raising LDL-C
median percent reductions in TG from baseline, 4 g/day compared with 2 g/day (fasting TG levels): higher with IPE 4 g/day than with 2 g/day
median percent reductions in TG from baseline, 4 g/day compared with 2 g/day (fasting TG levels; listed as EPA): higher for subjects administered about 4 grams of EPA per day
effect on TG levels (fasting TG levels; patients with very high TG levels): significantly reduced TG levels
